In brackets after ≈: the same amount, converted by molar mass. Read-outs that look alike come from different tables or passages of the source.
What was measured:
CHI Log D procedure = type: physicochemical; conditions: for chromatographic logD: pH 7.4, CHI Log D; for CHI Log D: pH 7.4
Solubility in PBS = type: physicochemical
In short: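 Steps: ultracentrifuge the peptide PBS solution, inject the supernatant on HPLC, inject a 50 μM peptide DMSO solution as reference, then calculate solubility as area ratio (PBS/DMSO) × 50 uM.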

[1] = target: T1, beta-catenin/TCF4 engagement (Homo sapiens, UniProt P35222); assay: Nano-BRET target engagement assay (B-cat-Halo & TCF4-Luc in HEK293 cells); type: cell-based
T1 construct: expressed in transfected cells; host or cells: HEK293
T1 sequence (P35222 1-781): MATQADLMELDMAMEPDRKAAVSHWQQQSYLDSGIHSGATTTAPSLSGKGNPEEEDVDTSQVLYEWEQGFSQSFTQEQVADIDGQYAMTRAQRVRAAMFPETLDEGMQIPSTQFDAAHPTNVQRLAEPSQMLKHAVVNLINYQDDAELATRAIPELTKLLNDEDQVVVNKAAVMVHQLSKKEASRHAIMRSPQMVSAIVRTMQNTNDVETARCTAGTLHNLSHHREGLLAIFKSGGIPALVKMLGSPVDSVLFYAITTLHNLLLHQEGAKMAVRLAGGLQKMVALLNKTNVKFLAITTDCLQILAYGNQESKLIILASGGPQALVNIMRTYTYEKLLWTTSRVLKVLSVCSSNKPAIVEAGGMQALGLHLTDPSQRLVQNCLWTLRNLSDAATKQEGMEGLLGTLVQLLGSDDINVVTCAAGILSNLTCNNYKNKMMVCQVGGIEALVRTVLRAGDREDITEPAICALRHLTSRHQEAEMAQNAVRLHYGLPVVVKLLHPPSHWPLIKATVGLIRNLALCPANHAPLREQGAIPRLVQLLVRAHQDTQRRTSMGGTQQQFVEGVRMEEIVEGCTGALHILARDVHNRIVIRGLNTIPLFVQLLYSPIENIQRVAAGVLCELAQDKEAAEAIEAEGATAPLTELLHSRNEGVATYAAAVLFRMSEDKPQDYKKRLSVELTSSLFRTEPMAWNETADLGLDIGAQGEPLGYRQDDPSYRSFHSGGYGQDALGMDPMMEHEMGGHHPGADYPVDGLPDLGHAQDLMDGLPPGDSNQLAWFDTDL

[2] = target: T2, full-length beta-Catenin (Uniprot ID P35222) (Homo sapiens, UniProt P35222); assay: Fluorescence polarization IC50 (beta-catenin / 5FAM-TCF4 10-53 competition); type: binding
T2 construct: 10 nM full-length beta-Catenin (Uniprot ID P35222)
T2 sequence (P35222 1-781): T1 sequence (P35222 1-781)

[3] = fluorescence polarization, read-out: beta-Catenin FP IC50
[4] = absolute IC50, read-out: NanoBRET Abs IC50

SMILES | chromatographic logD (CHI Log D procedure) | Solubility (Solubility in PBS; Solubility (uM)) | inhibition at 10 µM ([1]; HEK293, @ 10 uM, read-out: NanoBRET % inh @ 10 uM) | IC50 [2, 3] | CHI Log D (CHI Log D procedure) | Solubility (Solubility in PBS) | IC50 [1, 4] | IC50 ([2]; read-out: FP EC50) | IC50 ([1]; Abs IC50, read-out: NanoBRET Abs IC50) | IC50 ([1]; read-out: NanoBRET IC50)
CC(=O)N1CCC[C@]12CC=CCCCC1(CCCC=CCCCOC(=O)N3CC[C@@](C(=O)N[C@@H](Cc4ccsc4)C(=O)N[C@@H](Cc4csc5ccccc45)C(=O)N[C@@H](Cc4c[nH]cn4)C(N)=O)(C3)NC(=O)[C@H](CC(N)=O)NC(=O)[C@H](Cc3ccccc3)NC(=O)[C@H](C)NC(=O)[C@H](C)NC(=O)[C@H](CC(=O)O)NC(=O)[C@H](CC(=O)O)NC1=O)NC(=O)[C@H](CC(C)C)NC(=O)[C@H](CC(=O)O)NC2=O (stereo partly drawn) [I-696, Ac-PL3-Asp-Leu-B5-Asp-Asp-Ala-Ala-Phe-Asn-PyrS2-3Thi-BztA-His-NH2] | 2 | 40 µM (≈ 76.5 µg/mL) | 17% | 5 nM | – | – | – | – | – | –
CC(=O)N1CCC[C@]12CC=CCCCC1(CCCC=CCCCOC(=O)N3CC[C@@](C(=O)N[C@@H](Cc4ccsc4)C(=O)N[C@@H](Cc4csc5ccccc45)C(=O)N[C@@H](Cc4c[nH]cn4)C(N)=O)(C3)NC(=O)[C@H](CC(N)=O)NC(=O)[C@H](Cc3ccccc3)NC(=O)[C@H](C)NC(=O)[C@H](C)NC(=O)[C@H](CCC(=O)O)NC(=O)[C@H](CC(=O)O)NC1=O)NC(=O)[C@H](CC(C)(C)C)NC(=O)[C@H](CC(=O)O)NC2=O (stereo partly drawn) [I-697, Ac-PL3-Asp-Npg-B5-Asp-Glu-Ala-Ala-Phe-Asn-PyrS2-3Thi-BztA-His-NH2] | – | – | – | 5 nM | 2.093 | 21 µM (≈ 40.8 µg/mL) | 14700 nM | – | – | –
CC[C@H](C)[C@@H]1NC(=O)[C@H](CC(=O)O)NC(=O)[C@]2(CC=CCCCC3(CCCC=CCCCCCC[C@@](C)(C(=O)N[C@@H](Cc4ccsc4)C(=O)N[C@@H](Cc4csc5ccccc45)C(=O)N[C@@H](CCC(N)=O)C(N)=O)NC(=O)[C@H](CC(N)=O)NC(=O)[C@H](Cc4ccccc4)NC(=O)[C@H](C)NC(=O)[C@H](C)NC(=O)[C@H](CN(CC(=O)O)CC(F)(F)F)NC(=O)[C@H](CC(=O)O)NC3=O)NC1=O)CCCN2C(C)=O (stereo partly drawn) [I-701, Ac-PL3-Asp-Ile-B5-Asp-TfeGA-Ala-Ala-Phe-Asn-S8-3Thi-BztA-Gln-NH2] | – | – | – | 34 nM | 2.631 | 46 µM (≈ 90.7 µg/mL) | 18100 nM | 34 nM | – | –
CC(=O)N1CCC[C@]12CC=CCCCC1(CCCC=CCCCCCC[C@@](C)(C(=O)N[C@@H](Cc3ccccc3)C(=O)N[C@@H](Cc3csc4ccccc34)C(=O)N[C@@H](CCC(N)=O)C(N)=O)NC(=O)[C@H](CC(N)=O)NC(=O)[C@H](Cc3ccccc3)NC(=O)[C@H](C)NC(=O)[C@H](C)NC(=O)[C@H](CN(CC(=O)O)CC(F)(F)F)NC(=O)[C@H](CC(=O)O)NC1=O)NC(=O)[C@H](CC(C)(C)C)NC(=O)[C@H](CC(=O)O)NC2=O (stereo partly drawn) [I-703, Ac-PL3-Asp-Npg-B5-Asp-TfeGA-Ala-Ala-Phe-Asn-S8-Phe-BztA-Gln-NH2] | 2.76 | – | – | 57 nM | – | 50 µM (≈ 99 µg/mL) | – | – | 11900 nM | –
CC(=O)N1CCC[C@]12CC=CCCCC1(CCCC=CCCCCCC[C@@](C)(C(=O)N[C@@H](Cc3ccsc3)C(=O)N[C@@H](Cc3csc4ccccc34)C(=O)N[C@@H](CCC(N)=O)C(N)=O)NC(=O)[C@H](CC(N)=O)NC(=O)[C@H](Cc3ccccc3)NC(=O)[C@H](C)NC(=O)[C@H](C)NC(=O)[C@H](CN(CC(=O)O)CC(F)(F)F)NC(=O)[C@H](CC(=O)O)NC1=O)NC(=O)[C@H](CC(C)(C)C)NC(=O)[C@H](CC(=O)O)NC2=O (stereo partly drawn) [I-704, Ac-PL3-Asp-Npg-B5-Asp-TfeGA-Ala-Ala-Phe-Asn-S8-3Thi-BztA-Gln-NH2] | 2.75 | 42 µM (≈ 83.4 µg/mL) | – | 49 nM | – | – | – | – | – | 7900 nM
CC(=O)N1CCC[C@]12CC=CCCCC1(CCCC=CCCCCCC[C@@](C)(C(=O)N[C@@H](Cc3ccsc3)C(=O)N[C@@H](Cc3csc4ccccc34)C(=O)N[C@@H](CCC(N)=O)C(N)=O)NC(=O)[C@H](CC(N)=O)NC(=O)[C@H](Cc3ccccc3)NC(=O)[C@H](C)NC(=O)[C@H](C)NC(=O)[C@H](CN(CC(=O)O)CC(F)(F)F)NC(=O)[C@H](CC(=O)O)NC1=O)NC(=O)[C@H](CC1CCCCC1)NC(=O)[C@H](CC(=O)O)NC2=O (stereo partly drawn) [I-708, Ac-PL3-Asp-Cha-B5-Asp-TfeGA-Ala-Ala-Phe-Asn-S8-3Thi-BztA-Gln-NH2] | – | – | – | 52 nM | 2.976 | 47 µM (≈ 94.6 µg/mL) | – | 52 nM | – | 11500 nM
CC(=O)N1CCC[C@]12CC=CCCCC1(CCCC=CCCCCCC[C@@](C)(C(=O)N[C@@H](Cc3ccccc3)C(=O)N[C@@H](Cc3csc4ccccc34)C(=O)N[C@@H](CCC(N)=O)C(=O)N[C@@H](C)C(N)=O)NC(=O)[C@H](CC(N)=O)NC(=O)[C@H](Cc3ccccc3)NC(=O)[C@H](C)NC(=O)[C@H](C)NC(=O)[C@H](CCC(=O)O)NC(=O)[C@H](CC(=O)O)NC1=O)NC(=O)[C@H](CC(C)C)NC(=O)[C@H](CC(=O)O)NC2=O (stereo partly drawn) [I-730, Ac-PL3-Asp-Leu-B5-Asp-Glu-Ala-Ala-Phe-Asn-S8-Phe-BztA-Gln-Ala-NH2] | – | – | – | 35 nM | 2.377 | 44 µM (≈ 85.4 µg/mL) | 11200 nM | 35 nM | – | –
CC(=O)N1CCC[C@]12CC=CCCCC1(CCCC=CCCCCCC[C@@](C)(C(=O)N[C@@H](Cc3ccccc3)C(=O)N[C@@H](Cc3csc4ccccc34)C(=O)N[C@@H](CCC(N)=O)C(=O)N[C@H](C)C(N)=O)NC(=O)[C@H](CC(N)=O)NC(=O)[C@H](Cc3ccccc3)NC(=O)[C@H](C)NC(=O)[C@H](C)NC(=O)[C@H](CCC(=O)O)NC(=O)[C@H](CC(=O)O)NC1=O)NC(=O)[C@H](CC(C)C)NC(=O)[C@H](CC(=O)O)NC2=O (stereo partly drawn) [I-731, Ac-PL3-Asp-Leu-B5-Asp-Glu-Ala-Ala-Phe-Asn-S8-Phe-BztA-Gln-dAla-NH2] | 2.33 | 48 µM (≈ 93.1 µg/mL) | – | 34 nM | – | – | 11600 nM | – | – | –
CC(=O)N1CCC[C@]12CC=CCCCC1(CCCC=CCCCCCC[C@@](C)(C(=O)N[C@@H](Cc3ccccc3)C(=O)N[C@@H](Cc3csc4ccccc34)C(=O)N[C@H](C(N)=O)[C@@H](C)O)NC(=O)[C@H](CC(N)=O)NC(=O)[C@H](Cc3ccccc3)NC(=O)[C@H](C)NC(=O)[C@H](C)NC(=O)[C@H](CCC(=O)O)NC(=O)[C@H](CC(=O)O)NC1=O)NC(=O)[C@H](CC(C)C)NC(=O)[C@H](CC(=O)O)NC2=O (stereo partly drawn) [I-749, Ac-PL3-Asp-Leu-B5-Asp-Glu-Ala-Ala-Phe-Asn-S8-Phe-BztA-Thr-NH2] | – | – | – | 40 nM | 2.472 | 45 µM (≈ 82.9 µg/mL) | 9000 nM | 40 nM | – | –
CC(=O)N1CCC[C@]12CC=CCCCC1(CCCC=CCCCCCC[C@@](C)(C(=O)N[C@@H](Cc3ccccc3)C(=O)N[C@@H](Cc3csc4ccccc34)C(=O)N[C@@H](CO)C(N)=O)NC(=O)[C@H](CC(N)=O)NC(=O)[C@H](Cc3ccccc3)NC(=O)[C@H](C)NC(=O)[C@H](C)NC(=O)[C@H](CCC(=O)O)NC(=O)[C@H](CC(=O)O)NC1=O)NC(=O)[C@H](CC(C)C)NC(=O)[C@H](CC(=O)O)NC2=O (stereo partly drawn) [I-750, Ac-PL3-Asp-Leu-B5-Asp-Glu-Ala-Ala-Phe-Asn-S8-Phe-BztA-Ser-NH2] | – | – | – | 43 nM | 2.441 | 48 µM (≈ 87.7 µg/mL) | 7400 nM | 43 nM | – | –
CC(=O)N1CCC[C@]12CC=CCCCC1(CCCC=CCCCCCC[C@@](C)(C(=O)N[C@@H](Cc3ccccc3)C(=O)N[C@@H](Cc3csc4ccccc34)C(=O)N[C@@H](CO)C(N)=O)NC(=O)[C@H](CC(N)=O)NC(=O)[C@H](Cc3ccccc3)NC(=O)[C@H](C)NC(=O)[C@H](C)NC(=O)[C@H](CCC(=O)O)NC(=O)[C@H](CC(=O)O)NC1=O)NC(=O)[C@H](CC(C)C)NC(=O)[C@H](CC(=O)O)NC2=O (stereo partly drawn) [I-751, Ac-PL3-Asp-Leu-B5-Asp-Glu-Ala-Ala-Phe-Asn-S8-Phe-BztA-Ser-NH2] | – | – | – | 29 nM | 2.513 | 48 µM (≈ 87.7 µg/mL) | 7100 nM | 29 nM | – | –

— patent US20240116985A1, “STAPLED PEPTIDES AND METHODS THEREOF” (priority 2020, published 2024)
